Test results taken from patent publication US11547697B2, “Heterocyclic compounds and uses thereof” (MILLENNIUM PHARMACEUTICALS, INC., priority 2009, dated 2023).
Read-outs that look alike come from different tables or passages of the source.

Key:
p110α/p85α = p110α/p85α (Homo sapiens (Human), UniProt P42336); assay: PI 3-Kinase (human) HTRF assay, p110α/p85α; assay type: biochemical; conditions: read-out: PI3K α IC50
p110γ = p110γ (Homo sapiens (Human), UniProt P48736); assay: PI 3-Kinase (human) HTRF assay, p110γ; assay type: biochemical; conditions: read-out: PI3K γ IC50
Chain of p110γ (P48736 whole entry): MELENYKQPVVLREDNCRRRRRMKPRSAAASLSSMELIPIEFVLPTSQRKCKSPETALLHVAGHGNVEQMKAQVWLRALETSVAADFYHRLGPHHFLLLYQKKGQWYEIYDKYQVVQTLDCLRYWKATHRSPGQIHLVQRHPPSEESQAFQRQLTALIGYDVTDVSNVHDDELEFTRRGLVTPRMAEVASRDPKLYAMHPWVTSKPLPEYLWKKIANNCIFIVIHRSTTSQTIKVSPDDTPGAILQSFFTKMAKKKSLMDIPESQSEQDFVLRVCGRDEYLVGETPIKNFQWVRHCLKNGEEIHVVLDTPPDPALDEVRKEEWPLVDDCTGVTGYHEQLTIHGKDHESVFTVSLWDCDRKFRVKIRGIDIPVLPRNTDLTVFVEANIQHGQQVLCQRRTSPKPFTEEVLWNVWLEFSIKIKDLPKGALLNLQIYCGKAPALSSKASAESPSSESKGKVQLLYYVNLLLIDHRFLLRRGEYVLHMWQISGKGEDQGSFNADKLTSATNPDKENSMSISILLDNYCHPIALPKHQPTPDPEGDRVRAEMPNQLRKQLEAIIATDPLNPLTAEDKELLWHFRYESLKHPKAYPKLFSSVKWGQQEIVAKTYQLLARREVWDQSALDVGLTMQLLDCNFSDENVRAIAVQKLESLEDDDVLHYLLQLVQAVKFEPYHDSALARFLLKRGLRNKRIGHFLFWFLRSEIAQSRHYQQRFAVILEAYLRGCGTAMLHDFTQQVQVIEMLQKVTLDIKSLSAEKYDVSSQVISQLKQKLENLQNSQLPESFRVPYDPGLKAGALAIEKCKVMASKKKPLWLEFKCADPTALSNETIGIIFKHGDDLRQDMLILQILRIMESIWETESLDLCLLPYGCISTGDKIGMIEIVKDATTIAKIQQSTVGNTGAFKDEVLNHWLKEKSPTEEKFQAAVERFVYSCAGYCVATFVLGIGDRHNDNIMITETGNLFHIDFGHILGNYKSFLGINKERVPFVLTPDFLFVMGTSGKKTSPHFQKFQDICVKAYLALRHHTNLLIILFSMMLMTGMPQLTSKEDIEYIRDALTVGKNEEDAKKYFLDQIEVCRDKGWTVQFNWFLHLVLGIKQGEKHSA
Description: An exemplary system is PI 3-Kinase (human) HTRF™ Assay from Upstate. […] Briefly, the assay is a time resolved FRET assay that indirectly measures PIP3 product formed by the activity of a PI3-K. The kinase reaction is performed in a microtitre plate (e.g., a 384 well microtitre plate). The total reaction volume is approximately 20 ul per well. In the first step, each well receives 2 ul of test compound in 20% dimethylsulphoxide resulting in a 2% DMSO final concentration. Next, approximately 14.5 ul of a kinase/PIP2 mixture (diluted in 1× reaction buffer) is added per well for a final concentration of 0.25-0.3 ug/ml kinase and 10 μM PIP2. The plate is sealed and incubated for 15 minutes at room temperature. To start the reaction, 3.5 ul of ATP (diluted in 1× reaction buffer) is added per well for a final concentration of 10 μM ATP. The plate is sealed and incubated for 1 hour at room temperature. The reaction is stopped by adding 5 ul of Stop Solution per well and then 5 ul of Detection Mix is added per well. The plate is sealed, incubated for 1 hour at room temperature, and then read on an appropriate plate reader. Data is analyzed and IC50s are generated using GraphPad Prism 5. […] For PI3K α, β, δ, and γ, the nM concentration of inhibitor to reach IC50 is provided.

Chain of p110α/p85α (P42336 whole entry): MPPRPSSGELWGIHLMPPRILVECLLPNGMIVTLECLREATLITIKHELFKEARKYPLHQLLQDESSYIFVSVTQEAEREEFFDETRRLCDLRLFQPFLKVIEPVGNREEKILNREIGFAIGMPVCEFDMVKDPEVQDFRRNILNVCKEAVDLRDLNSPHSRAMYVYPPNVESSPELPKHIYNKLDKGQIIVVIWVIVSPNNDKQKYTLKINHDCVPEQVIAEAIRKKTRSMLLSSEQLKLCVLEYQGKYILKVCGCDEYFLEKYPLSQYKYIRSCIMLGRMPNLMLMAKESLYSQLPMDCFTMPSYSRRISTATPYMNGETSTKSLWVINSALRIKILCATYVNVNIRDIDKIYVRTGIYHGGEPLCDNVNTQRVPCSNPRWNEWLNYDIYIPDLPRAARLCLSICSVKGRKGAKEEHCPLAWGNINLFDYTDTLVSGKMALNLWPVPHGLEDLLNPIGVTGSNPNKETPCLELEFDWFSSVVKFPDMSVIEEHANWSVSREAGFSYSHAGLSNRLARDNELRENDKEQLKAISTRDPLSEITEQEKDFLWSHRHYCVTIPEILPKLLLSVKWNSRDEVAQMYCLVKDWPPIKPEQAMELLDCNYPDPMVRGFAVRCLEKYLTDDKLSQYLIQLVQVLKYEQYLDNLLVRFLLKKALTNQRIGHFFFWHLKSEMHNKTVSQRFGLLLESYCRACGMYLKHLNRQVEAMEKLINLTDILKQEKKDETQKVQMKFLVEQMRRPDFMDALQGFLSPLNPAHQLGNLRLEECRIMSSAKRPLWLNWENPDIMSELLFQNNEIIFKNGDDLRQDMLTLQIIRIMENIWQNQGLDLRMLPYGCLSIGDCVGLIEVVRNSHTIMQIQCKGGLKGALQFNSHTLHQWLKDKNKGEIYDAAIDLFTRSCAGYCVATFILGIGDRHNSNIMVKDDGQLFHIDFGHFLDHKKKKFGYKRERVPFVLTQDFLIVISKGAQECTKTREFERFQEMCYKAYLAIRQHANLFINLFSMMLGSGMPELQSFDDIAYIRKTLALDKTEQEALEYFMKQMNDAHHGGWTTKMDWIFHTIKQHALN
Chain of p110α/p85α (P27986 whole entry partner): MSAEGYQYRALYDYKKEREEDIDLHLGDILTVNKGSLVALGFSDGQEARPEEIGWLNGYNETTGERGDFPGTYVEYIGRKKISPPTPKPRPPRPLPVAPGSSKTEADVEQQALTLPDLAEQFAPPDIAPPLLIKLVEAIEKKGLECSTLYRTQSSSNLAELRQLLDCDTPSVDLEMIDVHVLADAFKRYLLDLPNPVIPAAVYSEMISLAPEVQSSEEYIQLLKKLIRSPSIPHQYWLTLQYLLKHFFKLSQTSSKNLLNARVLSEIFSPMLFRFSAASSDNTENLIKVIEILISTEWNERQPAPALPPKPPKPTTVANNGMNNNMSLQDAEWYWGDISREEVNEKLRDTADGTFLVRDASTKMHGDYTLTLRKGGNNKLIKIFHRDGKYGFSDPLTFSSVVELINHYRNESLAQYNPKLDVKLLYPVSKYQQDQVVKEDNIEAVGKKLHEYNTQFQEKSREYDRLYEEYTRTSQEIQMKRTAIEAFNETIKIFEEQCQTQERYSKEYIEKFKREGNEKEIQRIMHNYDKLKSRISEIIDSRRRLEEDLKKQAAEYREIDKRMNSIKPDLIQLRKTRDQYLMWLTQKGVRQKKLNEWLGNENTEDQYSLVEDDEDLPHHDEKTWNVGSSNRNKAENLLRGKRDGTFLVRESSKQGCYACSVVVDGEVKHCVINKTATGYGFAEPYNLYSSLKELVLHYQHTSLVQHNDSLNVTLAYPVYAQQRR

| Compound | IC50 (p110α/p85α) [µM] | IC50 (p110γ) [µM] | IC50 (p110α/p85α; in vitro) [µM] | IC50 (p110γ; in vitro) [µM] |
| --- | --- | --- | --- | --- |
| Nc1ncnc2ccc(-c3ccc4nccc(-c5ccncc5)c4c3)cc12 [compound 8] | < 10 | < 1 | – | – |
| Nc1nc2cc(-c3cc4nccc(-c5ccncc5)c4s3)ccc2o1 [compound 14] | < 10 | < 10 | – | – |
| Nc1noc2ccc(-c3ccc4nccc(-c5ccncc5)c4c3)cc12 [compound 18] | < 10 | < 10 | – | – |
| Nc1nc2cc(-c3c[nH]c4nccc(-c5ccncc5)c34)ccc2o1 [compound 25] | < 10 | < 10 | – | – |
| Nc1nc2cc(-c3ccc4nccc(NC5CCOCC5)c4c3)ccc2o1 [compound 32] | < 10 | < 10 | – | – |
| Nc1nc2cc(-c3ccc4ncn(C5CCOCC5)c4c3)ccc2o1 [compound 48] | < 10 | – | – | – |
| Nc1nc2cc(-c3ccc4ncc(N5CCOCC5)n4c3)ccc2o1 [compound 53] | < 10 | – | – | – |
| Nc1nc2cc(-c3ccc4ncn(C5CCOCC5)c(=O)c4c3)ccc2o1 [compound 55] | < 1 | – | – | – |
| Nc1nc2ccc(-c3ccc4ncn(C5CCOCC5)c(=O)c4c3)cc2o1 [compound 63] | < 10 | – | – | – |
| CC(=O)N1CCC(n2cnc3ccc(-c4ccc5oc(N)nc5c4)cc3c2=O)CC1 [compound 66] | < 10 | – | – | – |
| CS(=O)(=O)N1CCC(n2cnc3ccc(-c4ccc5oc(N)nc5c4)cc3c2=O)CC1 [compound 67] | < 1 | – | – | – |
| CN1CCN(c2nc3cc(-c4ccc5oc(N)nc5c4)ccc3c(=O)n2C)CC1 [compound 79] | < 10 | – | – | – |
| Cn1c(N2CCOCC2)nc2cc(-c3ccc4oc(N)nc4c3)ccc2c1=O [compound 80] | < 1 | – | – | – |
| Nc1nc2cc(-c3ccc4ncc(C(=O)N5CCOCC5)cc4c3)ccc2o1 [compound 97] | < 10 | – | – | – |
| Nc1nc2cc(-c3ccc4ncc(N5CCS(=O)(=O)CC5)nc4c3)ccc2o1 [compound 98] | < 0.1 | < 0.1 | – | – |
| CN1CCN(C(=O)c2cnc3ccc(-c4ccc5oc(N)nc5c4)nn23)CC1 [compound 104] | < 10 | < 10 | – | – |
| C[C@@H]1CN(C(=O)c2cnc3ccc(-c4ccc5oc(N)nc5c4)cn23)C[C@H](C)O1 [compound 106] | < 10 | < 10 | – | – |
| Nc1nc2cc(-c3ccc4ncc(C(=O)N5CCS(=O)(=O)CC5)n4c3)ccc2o1 [compound 107] | < 1 | < 10 | – | – |
| Nc1nc2ccc(-c3ccc4ncc(N5CCOCC5)nc4c3)cc2s1 [compound 114] | < 0.1 | < 1 | – | – |
| CN1CCN(C(=O)c2cnc3cnc(-c4ccc5oc(N)nc5c4)cn23)CC1 [compound 123] | < 10 | – | – | – |

| Compound | IC50 (p110α/p85α) [µM] | IC50 (p110γ) [µM] | IC50 (p110α/p85α; in vitro) [µM] | IC50 (p110γ; in vitro) [µM] |
| --- | --- | --- | --- | --- |
| C[C@@H]1CN(c2cnc3ccc(-c4ccc5oc(N)nc5c4)cc3n2)C[C@H](C)O1 [compound 132] | < 1 | < 10 | – | – |
| CCN1CCN(C(=O)c2cnc3ccc(-c4ccc5oc(N)nc5c4)cn23)CC1 [compound 141] | < 1 | < 10 | – | – |
| CC1CN(C(=O)c2cnc3ccc(-c4ccc5oc(N)nc5c4)cn23)CC(C)N1 (stereo not shown) [compound 142] | < 10 | – | – | – |
| Nc1nc2cc(-c3ccc4ncc(-c5ccnc(N6CCOCC6)c5)nc4c3)ccc2o1 [compound 150] | < 1 | – | – | – |
| CN1CCN(C(=O)c2cnc3ccc(-c4ccc5oc(N)nc5c4)cc3n2)CC1 [compound 157] | < 10 | – | – | – |
| Nc1nc2cc(-c3ccc4ncc(C(=O)N5CCOCC5)nc4c3)ccc2o1 [compound 158] | < 10 | – | – | – |
| Nc1nc2cc(-c3ccc4ncc(C(=O)N5CCC(O)CC5)n4c3)ccc2o1 [compound 162] | < 1 | < 10 | – | – |
| Nc1nc2cc(-c3ccc4ncc(-c5ccc(N6CCOCC6)nc5)nc4c3)ccc2o1 [compound 167] | < 10 | – | – | – |
| Nc1nc2cc(-c3ccc4ncc(N5CCCCC5)nc4c3)ccc2o1 [compound 175] | < 0.1 | < 10 | – | – |
| Cc1cn(-c2cnc3ccc(-c4ccc5oc(N)nc5c4)cc3n2)cn1 [compound 177] | < 0.1 | < 1 | – | – |
| Nc1nc2cc(-c3ccc4ncc(-c5ccccc5)nc4c3)ccc2o1 [compound 180] | < 1 | – | – | – |
| Cc1ncccc1-c1cnc2ccc(-c3ccc4oc(N)nc4c3)cc2n1 [compound 185] | < 1 | – | – | – |
| Cc1ccc(-c2cnc3ccc(-c4ccc5oc(N)nc5c4)cc3n2)cn1 [compound 194] | < 0.1 | < 0.1 | – | – |
| Nc1nc2cc(-c3ccc4ncn(C5CCC5)c(=O)c4c3)ccc2o1 [compound 205] | – | – | < 0.1 | – |
| CC(C)n1cnc2ccc(-c3ccc4oc(N)nc4c3)cc2c1=O [compound 206] | – | – | < 0.1 | < 10 |
| Nc1ncc(-c2cnc3ccc(-c4ccc5oc(N)nc5c4)cc3n2)cn1 [compound 210] | – | – | < 1 | – |
| Cc1ccn(C2CCN(c3cnc4ccc(-c5ccc6oc(N)nc6c5)cc4n3)CC2)n1 [compound 223] | – | – | < 0.1 | < 1 |
| CCN(CC)CCn1cnc2ccc(-c3ccc4oc(N)nc4c3)cc2c1=O [compound 224] | – | – | < 10 | – |
| Nc1ncc(-c2ccc3oc(N)nc3c2)cn1 [compound 233] | – | – | – | < 10 |
| CC(=O)Nc1nc2cc(-c3ccc4oc(N)nc4c3)ccc2s1 [compound 250] | – | – | – | < 0.1 |
